# In patent US20170276668A1, “NEURAL MICROPHYSIOLOGICAL SYSTEMS AND METHODS OF USING THE SAME” (The Administrators of the Tulane Educational Fund, priority 2014, published 2017):
# Entries after “also recorded” stand apart in the source; their conditions may differ.
# B1: BDNF: brain-derived neurotrophic factor (protein, UniProt P23560 19-247, looked up)
# Neurotrophic factor BDNF …: APMKEANIRGQGGLAYPGVRTHGTLESVNGPKAGSRGLTSLADTFEHVIEELLDEDQKVRPNEENNKDADLYTSRVMLSSQVPLEPPLLFLLEEYKNYLDAANMSMRVRRHSDPARRGELSVCDSISEWVTAADKKTAVDMSGGTVTVLEKVPVSKGQLKQYFYETKCNPMGYTKEGCRGIDKRHWNSQCRTTQSYVRALTMDSKKRIGWRFIRIDTSCVCTLTIKRGR
# B2: CNTF: ciliary neurotrophic factor (protein, UniProt P26441 1-200, looked up)
# Ciliary neurotrophic factor: MAFTEHSPLTPHRRDLCSRSIWLARKIRSDLTALTESYVKHQGLNKNINLDSADGMPVASTDQWSELTEAERLQENLQAYRTFHVLLARLLEDQQVHFTPTEGDFHQAIHTLLLQVAAFAYQIEELMILLEYKIPRNEADGMPINVGDGGLFEKKLWGLKVLQELSQWTVRSIHDLRFISSHQTGIPARGSHYIANNKKM
# Key:
# [1] = tested on: neuronal cell death in vitro; conditions: cited from earlier work
# DRG neurites = assay: DRG neurite growth toward a factor diffusing from a reservoir in the hydrogel construct; format: cell-based; conditions: NGF vs BSA diffusing from a reservoir, FIG. 28
# [2] = tested on: DRG/Schwann cell co-culture; assay: DRG/SC three-dimensional co-culture: neurite growth and myelin formation (immunohistochemistry, confocal); format: cell-based, rat
# From the text: The dual hydrogel culture system was fabricated using a digital projection photolithography, as described above. A schematic of the process is seen in FIG. 13. In brief, a photolithography apparatus comprised of a collimated UV light source (OmniCure 1000 with 320-500 nm filter, EXFO, Quebec, Canada) and a visible light source (SOLA light engine with […] filter, Lumencor, Oreg., USA), a digital micromirror device (DMD) (Discovery™ 3000, Texas Instruments, Dallas, Tex.) as a dynamic photomask and a 2× Plan Fluor objective lens (Nikon Instruments, Tokyo, Japan) were utilized to irradiate the photocurable hydrogel solution that was contained in a permeable cell culture insert with 0.4 μm pore size. The inserts were either collagen-coated PTFE Transwell® Permeable Support or Transwell™ Clear Polyester Membrane Inserts (Corning Inc., Corning, N.Y., USA) to investigate the influence of collagenated substrates on SC/neuron incorporation. The dual hydrogel system consists of two compartments: a cell permissive section that contains neurons and a cell restrictive section that acts as a hydrogel mold. In order to make the cell restrictive section, a solution of 10% (w/v) PEG-diacrylate (Mn 1000; Polysciences Inc., Warrington, Pa.) and 0.5% (w/v) Irgacure 2959 in PBS was irradiated with 85 mW/cm2 UV light as measured by a radiometer (306 UV Powermeter, Optical Associates, San Jose, Calif.), for 38 seconds to make a PEG micromold, shown in FIG. 13. The cell culture insert was treated with filtered Rain-X® Original Glass Treatment (RainX, Houston, Tex.) prior to addition of the gel solution in order to avoid meniscus behavior. 0.5 ml of solution was added to each 6-well plate insert. Addition of 0.5 ml solution results in a gel thickness of 480 μm. Hydrogel constructs were washed in DPBS with 1% antibiotic-antimycotic additive to inhibit contamination.
# As the first step of the co-culture, the primary tissue culture was performed. The PEG constructs were prepared and immersed in the adhesion media and incubated (37° C., 5% C02) overnight prior to the tissue culture. The adhesion media was comprised of Neurobasal medium supplemented with B27 (2% v/v), L-glutamine (0.25% v/v), nerve growth factor (NGF) (0.02 μg/ml), fetal bovine serum (FBS) (10% v/v/) and penicillin/streptomycin (1% v/v) (all from Life Technologies, CA). The constructs were then cultured with Long Evans rat embryo dorsal root ganglion (DRG) tissue, in keeping with the guidelines of the Institutional Animal Care and Use Committee. The DRGs were isolated from embryonic day 15 rat embryos and trimmed prior to the culture. A single DRG explant was placed in each construct. The DRGs were then incubated in fresh adhesion media overnight to allow the tissue to adhere to the insert
# The SCs were dispersed in 50% MeDex solution in SC medium as described above to reach a cell count of 20×10^6 cell/mL. In order to achieve an evenly distributed single cell solution, the gel mixture was pipetted up and down vigorously. The adhesion medium was aspirated from the channels gently to avoid disturbing the adhered DRGs and 2 μL of the MeDex single cell solution was added to each PEG micromold. A negative photomask was loaded on the DMD and the gel solution in the channel was crosslinked with 85 mW/cm^2 visible light as measured by a radiometer (306 UV Powermeter, Optical Associates, San Jose, Calif.) after 30 seconds of irradiation using a visible light source (SOLA light engine with 375-650 nm filter, Lumencor, Oreg., USA). The constructs were gently washed using the wash buffer described above three times.
# In order to understand the influence of various media regimens on the behavior of DRGs and SCs in a three-dimensional co-culture, two different culture systems were applied. The culture systems are described in Table 2. Culture System 1 has two phases where Media 1 (10 days) and 2 (15 days) are applied in that order. […]
# [3] = tested on: DRG explants in dual hydrogel constructs; format: cell-based, rat; conditions: for response duration before (t1-t5) vs after (t16-t20) drug wash-in / response amplitude before (t1-t5) vs after (t16-t20) drug wash-in: 20 μM DNQX and 50 μM APV applied together; for response duration before (t1-t5) vs after (t16-t20) drug wash-in: n=4, at half-peak; for response amplitude before (t1-t5) vs after (t16-t20) drug wash-in: n=4, peak-to-peak
# Retinal explants = assay: Retinal explant culture in 3D micropatterned hydrogels; format: cell-based, rat; conditions: neurobasal Sato medium supplemented with the factor, one week, β-III tubulin
# Experimental: Work and experimental data for the dorsal root ganglia model is presented in the present disclosure. For a central nervous system model, the growth of retinal explants has also been explored. FIGS. 27A-27B depict a culture of retinal (CNS) tissue. Retinal explants from embryonic rats were cultured within 3D micropatterned hydrogels in “neurobasal Sato” medium supplemented with either ciliary neurotrophic factor CNTF ([…]) or brain-derived neurotrophic factor BDNF ([…]).
molecule,measurement,setting,value
CC[C@]1(O)C[C@H]2CN(CCc3c([nH]c4ccccc34)[C@@](C(=O)OC)(c3cc4c(cc3OC)N(C=O)[C@H]3[C@@](O)(C(=O)OC)[C@H](OC(C)=O)[C@]5(CC)C=CCN6CC[C@]43[C@@H]65)C2)C1 [Vincristine],Neurotoxic dose,[1],0.1 µM
CC(=O)O[C@H]1C(=O)[C@@]2(C)[C@H]([C@H](OC(=O)c3ccccc3)[C@]3(O)C[C@H](OC(=O)[C@H](O)[C@@H](NC(=O)c4ccccc4)c4ccccc4)C(C)=C1C3(C)C)[C@]1(OC(C)=O)CO[C@@H]1C[C@@H]2O [Paclitaxel],Neurotoxic dose,[1],0.1 µM
NGF: nerve growth factor,direction of DRG neurite growth,DRG neurites,grow preferentially toward NGF
"O=C1O[C@H]([C@@H](O)CO)C(O)=C1O [AA, L-ascorbic acid]",amount of myelin,"[2]; 25 days of media containing AA (NCol-25, Col-25)",considerable increase
same,ratio of myelin to neuronal growth (percentage of myelin),"[2]; longer exposures to AA, MBP, MAG, PO stains",increases
"NC1=N[C@H](O)[C@H]2[C@H]3O[C@]4(O)O[C@@H]([C@@H](O)[C@@]2(N1)[C@@H]4O)[C@]3(O)CO [TTX, tetrodotoxin]",average response amplitude (peak-to-peak) after wash-in,[3],0.04 μV
same,effect on CAP / population response,[3],reversibly abolished; also recorded: completely abolished; also recorded: abolishment of population response
same,time to complete abolishment of responses,[3],≤ 2 min
collagen,amount of myelin formation,"[2]; 25 days, addition of collagen I and III",increased
same,"volume of neuronal outgrowth, cultures with vs without collagen","[2]; 25 days, collagen-coated inserts, n=15-18 constructs",significantly higher volume; also recorded: significantly more neuronal growth
same,amount of MBP-positive myelin,"[2]; 25 days, presence of collagen, FIG. 17B",increased
same,amount of PO-positive myelin,"[2]; 25 days, presence of collagen, FIG. 18B",increased
CC(C)C[C@H](NC(=O)[C@H](Cc1ccccc1)NC(=O)c1cnccn1)B(O)O [Bortezomib],Neurotoxic dose,[1],0.02 µM
"N[C@H](CCCP(=O)(O)O)C(=O)O [APV, (2R)-amino-5-phosphonopentanoate]",response duration before (t1-t5) vs after (t16-t20) drug wash-in,[3],no statistically significant difference; also recorded: no marked change
same,response amplitude before (t1-t5) vs after (t16-t20) drug wash-in,[3],no statistically significant difference; also recorded: no marked change
"O=C1N=c2cc([N+](=O)[O-])c([N+](=O)[O-])cc2=NC1=O [DNQX, 6,7-dinitroquinoxaline-2,3Dione]",response duration before (t1-t5) vs after (t16-t20) drug wash-in,[3],no statistically significant difference; also recorded: no marked change
same,response amplitude before (t1-t5) vs after (t16-t20) drug wash-in,[3],no statistically significant difference; also recorded: no marked change
B1,retinal ganglion cell axon extension,Retinal explants,Observable retinal ganglion cell axon extension
B2,retinal ganglion cell axon extension,Retinal explants,Observable retinal ganglion cell axon extension
